Measurements published in US20250195483A1, “SPIRO PIPERIDINE DERIVATIVES AS INHIBITORS OF APOL1 AND METHODS OF USING SAME” (Vertex Pharmaceuticals Incorporated, priority 2022, published 2025).

target: T1, APOL1 (Homo sapiens, UniProt O14791); experiment: MultiTox-Fluor Multiplex Cytotoxicity Assay, tet-inducible APOL1 T-REx-HEK293 cells (G0, G1 or G2 clone not specified for Table 20); assay type: cell-based; settings: tet-induced, 24 hours with compound, ratio of dead to live cells, read-out: IP50 (i.e., IC50 for cell proliferation)
T1 sequence (O14791 1-398): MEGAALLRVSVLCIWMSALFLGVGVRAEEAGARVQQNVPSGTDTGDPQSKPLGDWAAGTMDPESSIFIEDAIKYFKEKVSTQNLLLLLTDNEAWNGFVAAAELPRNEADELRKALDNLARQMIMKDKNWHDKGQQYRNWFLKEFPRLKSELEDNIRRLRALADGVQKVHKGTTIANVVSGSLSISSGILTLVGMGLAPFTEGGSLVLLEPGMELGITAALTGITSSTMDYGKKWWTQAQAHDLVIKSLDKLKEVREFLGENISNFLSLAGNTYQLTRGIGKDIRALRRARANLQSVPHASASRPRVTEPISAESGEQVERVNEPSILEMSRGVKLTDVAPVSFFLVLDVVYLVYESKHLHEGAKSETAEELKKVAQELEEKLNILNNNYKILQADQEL
Procedure: Human embryonic kidney (HEK293) cell lines containing a tet-inducible expression system (T-REx™; Invitrogen, Carlsbad, CA) and Adeno-associated virus site 1 pAAVS1-Puro-APOL1 G0 or pAAVS1-Puro-APOL1 G1 or pAAVS1-Puro-APOL1 G2 Clones G0 DC2.13, G1 DC3.25, and G2 DC4.44 were grown in a T-225 flask at ˜90% confluency in cell growth media (DMEM, 10% Tet-free FBS, 2 mM L-glutamine, 100 Units/mL penicillin-streptomycin, 5 μg/mL blasticidin S HCl, 1 μg/mL puromycin dihydrochloride). Cells were washed with DPBS and then trypsinized to dissociate from the flask. Media was used to quench the trypsin, cells were then pelleted at 200 g and resuspended in fresh cell assay media (DMEM, 2% Tet-free FBS, 2 mM L-glutamine, 100 Units/mL penicillin-streptomycin). Cells were counted and diluted to 1.17×10^6 cells/mL. 20 μL of cells (23,400/well) were dispensed in every well of a 384-well Poly-D-Lysine coated plate using the Multidrop dispenser. The plates were then incubated at room temperature for one hour.
Tetracycline is needed to induce APOL1 expression. 1 mg/mL tet stock in water was diluted to 250 ng/mL (5×) in cell assay media. 60 μL of cell assay media (no tet control) was dispensed in columns 1 and 24, and 60 μL of 5× tet in 384-PP-round bottom plate was dispensed in columns 2 to 23 with the Multidrop dispenser.
Assay ready plates from the Global Compound Archive were ordered using template 384_APOL1Cell_DR10n2_50 uM_v3. Compounds were dispensed at 200 nL in DMSO. The final top concentration was 10 μM with a 10 point 3-fold dilution in duplicate in the MultiTox assay.
20 μL was transferred from the 5× tet plate to the ARP and mixed, then 5 μL of 5× tet and the compounds were transferred to the cell plate and mixed using the Bravo. The cell plate was placed in the humidified 37° C. 5% CO2 incubator for 24 hours.
The MultiTox-Fluor Multiplex Cytotoxicity Assay was performed in accordance with the manufacturer's protocol. After cells were incubated with tet and compound for 24 hours, 25 μL of 1× MultiTox reagent was added to each well using the Multidrop dispenser; the plates were placed on a plate shaker (600 rpm) for 2 minutes, then centrifuged briefly and placed back in the 37° C. incubator for 30 minutes. The cell viability (excitation: 400 nm, emission: 486 nm) and cytotoxicity (excitation: 485 nm, emission: 535 nm) were read using the EnVision plate reader. A ratio of dead (cytotoxicity) to live (viability) cells was reported. Data was exported and analyzed in Genedata. Data was normalized using percent of control, no tet (100% viability), and 50 ng/mL tet treated (0% viability), and fit using Smart Fit settings in Genedata.

| Compound | IC50 |
| --- | --- |
| CN1C(=O)C2(CCN(Cc3cnc(NC(C)(C)CO)nc3)CC2)c2cc(Cl)ccc21 [Compound 40] | 50 to 500 nM |
| CC(CO)(CO)Cn1cc(CN2CCC3(CC2)C(=O)Nc2ccc(Cl)cc23)nn1 [Compound 41, 5-chloro-1′-[[1-[3-hydroxy-2-(hydroxymethyl)-2-methyl-propyl]triazol-4-yl]methyl]spiro[indoline-3,4′-piperidine]-2-one] | 50 to 500 nM |
| CN1C(=O)C2(CCN(Cc3cn(CCO)nn3)CC2)c2cc(Cl)ccc21 [Compound 43] | ≥ 500 nM |
| CN1C(=O)C2(CCN(Cc3cn(CC(C)(CO)CO)nn3)CC2)c2cc(Cl)ccc21 [Compound 44] | ≥ 500 nM |
| CS(=O)(=O)CCn1cc(CN2CCC3(CC2)C(=O)N(CCO)c2ccc(Cl)cc23)cn1 [Compound 45, 5-chloro-1-(2-hydroxyethyl)-1′-[[1-(2-methylsulfonylethyl)pyrazol-4-yl]methyl]spiro[indoline-3,4′-piperidine]-2-one] | 50 to 500 nM |
| O=C1N(CCO)c2ccc(Cl)cc2C12CCN(Cc1cn[nH]c1)CC2 [Compound 46] | 50 to 500 nM |
| CCN1C(=O)C2(CCN(Cc3cnn(CCS(C)(=O)=O)c3)CC2)c2cc(Cl)ccc21 [Compound 48] | 50 to 500 nM |
| CS(=O)(=O)CCn1cc(CN2CCC3(CC2)C(=O)N(C2COC2)c2ccc(Cl)cc23)cn1 [Compound 49] | 50 to 500 nM |
| CS(=O)(=O)CCn1cc(CN2CCC3(CC2)C(=O)N(CC(F)(F)F)c2ccc(Cl)cc23)cn1 [Compound 50] | 50 to 500 nM |
| COCCN1C(=O)C2(CCN(Cc3cnn(CCS(C)(=O)=O)c3)CC2)c2cc(Cl)ccc21 [Compound 51] | ≥ 500 nM |
| CN1C(=O)C2(CCN(Cc3cnn(CC(C)(C)O)c3)CC2)c2cc(Cl)ccc21 [Compound 52, 5-chloro-1′-[[1-(2-hydroxy-2-methyl-propyl)pyrazol-4-yl]methyl]-1-methyl-spiro[indoline-3,4′-piperidine]-2-one] | ≤ 50 nM |
| CN1C(=O)C2(CCN(Cc3cnn(CC(O)C(F)(F)F)c3)CC2)c2cc(Cl)ccc21 (stereo not shown) [Compound 53] | 50 to 500 nM |
| CN1C(=O)C2(CCN(Cc3cnn(CC4(O)CCS(=O)(=O)CC4)c3)CC2)c2cc(Cl)ccc21 [Compound 54] | 50 to 500 nM |
| CN1C(=O)C2(CCN(Cc3cnn(CCO)c3)CC2)c2cc(Cl)ccc21 [Compound 55] | ≥ 500 nM |
| CN1C(=O)C2(CCN(C[C@H]3C[C@@H](NC(=O)c4cc(C5CC5)no4)C3)CC2)c2cc(Cl)ccc21 [Compound 60, N-[3-[(5-chloro-1-methyl-2-oxo-spiro[indoline-3,4′-piperidine]-1′-yl)methyl]cyclobutyl]-3-cyclopropyl-isoxazole-5-carboxamide] | ≥ 500 nM |
| CN1C(=O)C2(CCN(Cc3cnn(C[C@H]4C[C@@H](NS(=O)(=O)C5CC5)C4)c3)CC2)c2cc(Cl)ccc21 [Compound 65] | ≥ 500 nM |
| Cc1cc(C(=O)N[C@H]2C[C@H](Cn3cc(CN4CCC5(CC4)C(=O)N(C)c4ccc(Cl)cc45)cn3)C2)on1 [Compound 70] | ≥ 500 nM |
| CN1C(=O)C2(CCN(Cc3cnn(CCS(N)(=O)=O)c3)CC2)c2ccccc21 [Compound 72, 2-(4-((I-methyl-2-oxospiro[indoline-3,4′-piperidin]-1′-yl)methyl)-1H-pyrazol-1-yl)ethane-1-sulfonamide] | ≥ 500 nM |
| CS(=O)(=O)CCn1cc(CN2CCC3(CC2)C(=O)N(CC(F)F)c2ccccc23)cn1 [Compound 73] | ≥ 500 nM |
| C[C@H]1C[C@@]2(CCN1Cc1cnn(CCO)c1)C(=O)Nc1ccc(Cl)cc12 [Compound 75] | 50 to 500 nM |
| C[C@H]1C[C@@]2(CCN1Cc1cnn(CC(=O)N(C)C)c1)C(=O)Nc1ccc(Cl)cc12 [Compound 76] | ≤ 50 nM |
| C[C@H]1C[C@@]2(CCN1Cc1cnn(CCS(C)(=O)=O)c1)C(=O)N(C)c1ccc(Cl)cc12 [Compound 80, (2′S,3R)-5-chloro-1,2′-dimethyl-1′-[[1-(2-methylsulfonylethyl)pyrazol-4-yl]methyl]spiro[indoline-3,4′-piperidine]-2-one trifluoracetic acid] | ≤ 50 nM |
| CN1C(=O)C2(CCN(Cc3cnn(CCS(C)(=O)=O)c3)CC2)c2cc(C(F)(F)F)ccc21 [Compound 83] | ≥ 500 nM |
| CCc1ccc2c(c1)C1(CCN(Cc3cnn(CCS(C)(=O)=O)c3)CC1)C(=O)N2C [Compound 84] | ≥ 500 nM |
| CN1C(=O)C2(CCN(Cc3cnn(CCS(C)(=O)=O)c3)CC2)c2cc(OC(F)F)ccc21 [Compound 85] | ≥ 500 nM |

| Compound | IC50 |
| --- | --- |
| CS(=O)(=O)CCn1cc(CN2CCC3(CC2)C(=O)N(Cc2ccccc2)c2ccc(OC(F)F)cc23)cn1 [Compound 86] | ≥ 500 nM |
| CN1C(=O)C2(CCN(Cc3cnn(CCS(C)(=O)=O)c3)CC2)c2cc(OC(F)(F)F)ccc21 [Compound 87] | ≥ 500 nM |
| C[C@H]1C[C@@]2(CCN1Cc1cnn(CCS(C)(=O)=O)c1)OCCc1ccc(Cl)cc12 [Compound 88, (1R,2′S)-7-chloro-2′-methyl-1′-[[1-(2-methylsulfonylethyl)pyrazol-4-yl]methyl]spiro[isochromane-1,4′-piperidine]] | ≤ 50 nM |
| CC1COC2(CCN(Cc3cnn(C)c3)CC2)c2ccccc21 (stereo not shown) [Compound 89, 4-methyl-1′-[(1-methylpyrazol-4-yl)methyl]spiro[isochromane-1,4′-piperidine]] | ≥ 500 nM |
| Cc1ccc2c(c1)[C@]1(CCN(Cc3cnn(C)c3)[C@@H](C)C1)OCC2 [Compound 91] | ≤ 50 nM |
| Cc1ccc2c(c1)C1(CCN(Cc3cnn(C)c3)C(C)C1)OCC2 (stereo not shown) [Compound 92] | ≤ 50 nM |
| Cc1ccc2c(c1)C1(CCN(Cc3cnn(C)c3)C(C)C1)OCC2 (stereo not shown) [Compound 93] | ≤ 50 nM |
| Cc1ccc2c(c1)[C@]1(CCN(Cc3cnc(NC(C)(C)CO)nc3)[C@@H](C)C1)OCC2 [Compound 94] | ≤ 50 nM |
| Cc1ccc2c(c1)[C@@]1(CCN(Cc3cnc(NC(C)(C)CO)nc3)[C@@H](C)C1)OCC2 [Compound 95] | ≥ 500 nM |
| Cc1ccc2c(c1)[C@]1(CCN(Cc3cn[nH]c3)[C@@H](C)C1)OCC2 [Compound 96] | ≤ 50 nM |
| Cc1ccc2c(c1)C1(CCN(Cc3cn[nH]c3)[C@@H](C)C1)OCC2 (stereo partly shown) [Compound 97] | ≥ 500 nM |
| Cc1ccc2c(c1)C1(CCN(Cc3cnn(CCO)c3)[C@@H](C)C1)OCC2 (stereo partly shown) [Compound 98] | ≤ 50 nM |
| Cc1ccc2c(c1)C1(CCN(Cc3cnn(CCO)c3)[C@@H](C)C1)OCC2 (stereo partly shown) [Compound 99] | ≥ 500 nM |
| Cc1ccc2c(c1)[C@]1(CCN(Cc3cnn(CC(C)(CO)CO)c3)[C@@H](C)C1)OCC2 [Compound 100] | ≤ 50 nM |
| Cc1ccc2c(c1)[C@@]1(CCN(Cc3cnn(CC(C)(CO)CO)c3)[C@@H](C)C1)OCC2 [Compound 101] | 50 to 500 nM |
| C[C@H]1C[C@@]2(CCN1Cc1cnn(CC(=O)N(C)C)c1)OCCc1ccc(Cl)cc12 [Compound 102] | 50 to 500 nM |
| C[C@H]1C[C@@]2(CCN1Cc1cnn(CCO)c1)OCCc1ccc(Cl)cc12 [Compound 103] | ≤ 50 nM |
| C[C@H]1C[C@@]2(CCN1Cc1cn[nH]c1)OCCc1ccc(Cl)cc12 [Compound 104] | ≤ 50 nM |
| C[C@H]1C[C@@]2(CCN1Cc1cn(C)nn1)OCCc1ccc(Cl)cc12 [Compound 105] | ≤ 50 nM |
| C[C@H]1C[C@@]2(CCN1Cc1c[nH]nn1)OCCc1ccc(Cl)cc12 [Compound 106] | ≤ 50 nM |
| C[C@H]1C[C@@]2(CCN1Cc1ccc3c(c1)n(C)c(=O)n3C)OCCc1ccc(Cl)cc12 [Compound 107] | ≤ 50 nM |
| C[C@H]1C[C@@]2(CCN1Cc1cn(C)cn1)OCCc1ccc(Cl)cc12 [Compound 108] | ≥ 500 nM |
| Cc1cc(CN2CC[C@]3(C[C@@H]2C)OCCc2ccc(Cl)cc23)[nH]n1 [Compound 109] | ≤ 50 nM |
| C[C@H]1C[C@@]2(CCN1Cc1ncc[nH]1)OCCc1ccc(Cl)cc12 [Compound 110] | 50 to 500 nM |
